Measurements as given in patent US20150307938A1, “METHOD TO IDENTIFY A NOVEL CLASS OF IMMUNOLOGIC ADJUVANTS” (Lancell, L.L.C., priority 2011, published 2015).

System: skin
Experiment: Affymetrix microarray of skin, DBP-4 hr and analogs vs. untreated; gene selection by log-2 fold change, Wilcoxon, Kendall tau (Tables 8, 9)
Type: in vivo, mouse
Conditions: DBP-4 hr

CCCCOC(=O)c1ccccc1C(=O)OCCCC [DBP, dibutylphthalate]
DBP Expression: Nr4a2 (NM_013613_at): 7.45 | DBP Expression: Ccl7 (NM_013654_at): 8.86 | DBP Expression: Plk3 (NM_013807_at): 8.72 | DBP Expression: Bcar3 (NM_013867_at): 7.96 | DBP Expression: Clic4 (NM_013885_at): 9.05 | DBP Expression: Rgs1 (NM_015811_at): 7.35 | DBP Expression: Aqp3 (NM_016689_at): 10.49 | DBP Expression: Map3k6 (NM_016693_at): 8.79 | DBP Expression: Krt35 (NM_016880_at): 5.45 | DBP Expression: Ccl20 (NM_016960_at): 11.11 | DBP Expression: Nfil3 (NM_017373_at): 8.13 | DBP Expression: Arc (NM_018790_at): 6.81 | DBP Expression: Cd86 (NM_019388_at): 7.42 | DBP Expression: Nfkb2 (NM_019408_at): 8.26 | DBP Expression: Ramp3 (NM_019511_at): 7.94 | DBP Expression: Pde4b (NM_019840_at): 8.96 | DBP Expression: Clec7a (NM_020008_at): 9.14 | DBP Expression: Angptl4 (NM_020581_at): 9.51 | DBP Expression: Pmaip1 (NM_021451_at): 8.41 | DBP Expression: Gpr35 (NM_022320_at): 5.63 | DBP Expression: Ptges (NM_022415_at): 8.31 | DBP Expression: Cxcl16 (NM_023158_at): 8.99 | DBP Expression: Zfp593 (NM_024215_at): 6.14 | DBP Expression: Pqlc1 (NM_025861_at): 10.20 | DBP Expression: Efhd2 (NM_025994_at): 10.57 | DBP Expression: Slc39a8 (NM_026228_at): 6.13 | DBP Expression: Dusp6 (NM_026268_at): 10.59 | DBP Expression: 1810011010Rik (NM_026931_at): 9.68 | DBP Expression: Pvr (NM_027514_at): 6.71 | DBP Expression: 1810055G02Rik (NM_028077_at): 8.40 | DBP Expression: Rnf19b (NM_029219_at): 8.99 | DBP Expression: Slc10a6 (NM_029415_at): 9.28 | DBP Expression: Abcc3 (NM_029600_at): 7.87 | DBP Expression: 1600029D21Rik (NM_029639_at): 10.16 | DBP Expression: Klrb 1b (NM_030599_at): 6.58 | DBP Expression: Il6 (NM_031168_at): 6.41 | DBP Expression: Bcl3 (NM_033601_at): 8.92 | DBP Expression: Epgn (NM_053087_at): 9.09 | DBP Expression: Otud7a (NM_130880_at): 7.23 | DBP Expression: Ier3 (NM_133662_at): 11.24 | DBP Expression: Prss22 (NM_133731_at): 7.96 | DBP Expression: Errfi1 (NM_133753_at): 10.14 | DBP Expression: Uap1 (NM_133806_at): 9.16 | DBP Expression: Stk17b (NM_133810_at): 9.70 | DBP Expression: Havcr2 (NM_134250_at): 7.20 | DBP Expression: Cytip (NM_139200_at): 9.90 | DBP Expression: Slc39a14 (NM_144808_at): 6.31 | DBP Expression: Cd207 (NM_144943_at): 10.32 | DBP Expression: Pyy (NM_145435_at): 9.16 | DBP Expression: Deptor (NM_145470_at): 9.12 | DBP Expression: Smox (NM_145533_at): 8.07 | DBP Expression: Arid5a (NM_145996_at): 7.61 | DBP Expression: Slc25a25 (NM_146118_at): 8.10 | DBP Expression: Kctd11 (NM_153143_at): 9.35 | DBP Expression: Dusp7 (NM_153459_at): 8.85 | DBP Expression: Adamts4 (NM_172845_at): 6.21 | DBP Expression: Fam43a (NM_177632_at): 9.07 | DBP Expression: Coro2a (NM_178893_at): 7.02 | DBP Expression: Gyk (NM_212444_at): 9.63 | DBP Expression: Il4ra (NM_001008700_at): 7.47 | DBP Expression: Il1rl1 (NM_001025602_at): 8.40 | DBP Expression: Zbtb16 (NM_001033324_at): 6.93 | DBP Expression: Deptor (NM_001037937_at): 9.12 | DBP Expression: Cd44 (NM_001039150_at): 9.82 | DBP Expression: Cd44 (NM_001039151_at): 9.82 | DBP Expression: Irs2 (NM_001081212_at): 8.35 | DBP Expression: Pprc1 (NM_001081214_at): 8.81 | DBP Expression: Gpr35 (NM_001104529_at): 5.63 | DBP Expression: Crem (NM_001110850_at): 6.91 | DBP Expression: Crem (NM_001110853_at): 6.26 | DBP Expression: Crem (NM_001110854_at): 6.91 | DBP Expression: Crem (NM_001110855_at): 6.91 | DBP Expression: Crem (NM_001110856_at): 6.91 | DBP Expression: Crem (NM_001110857_at): 6.26 | DBP Expression: Crem (NM_001110858_at): 6.26 | DBP Expression: Crem (NM_001110859_at): 6.26 | DBP Expression: Slc39a8 (NM_001135149_at): 6.13 | DBP Expression: Slc39a8 (NM_001135150_at): 6.13 | DBP Expression: Slc39a14 (NM_001135151_at): 6.31 | DBP Expression: Slc39a14 (NM_001135152_at): 6.31 | DBP Expression: Nr4a2 (NM_001139509_at): 7.45 | DBP Expression: Ccl20 (NM_001159738_at): 11.11 | DBP Expression: Slc25a25 (NM_001164357_at): 8.10 | DBP Expression: Slc25a25 (NM_001164358_at): 8.10 | DBP Expression: Pqlc1 (NM_001164420_at): 10.20 | DBP Expression: Pqlc1 (NM_001164421_at): 10.20 | DBP Expression: Pqlc1 (NM_001164422_at): 10.20 | DBP Expression: Coro2a (NM_001164804_at): 7.02 | DBP Expression: Tnfaip3 (NM_001166402_at): 7.22
